The values that follow come from patent EP0109340A2, “Acid salts of 2-piperazinopyrimidine, process for their preparation and pharmaceutical compositions containing them” (priority 1982, dated 1984).

Experiment [1] relates to comportement de rotation chez la souris après lésion unilatérale du striatum. Description: rotation behaviour after unilateral 6-hydroxydopamine lesion of the striatum (dopaminergic mechanism). Type of experiment: in vivo, souris femelles Charles River CD1. Particulars: oral, dose corresponding to 0,15 mg/kg free base; for activité dans le temps (rotations): course over 1, 3 and 6 h; for activité dans le temps (rotations) / somme algébrique des rotations ipsilatérales et contralatérales à la lésion: result in words; for somme algébrique des rotations ipsilatérales et contralatérales à la lésion: versus controls. The source says: Le mécanisme dopaminergique d'un composé représentatif de l'invention, la 2-(1-pipérazinyl)pyrimidine mcno-L (+) - tartrate, a été étudié en comparaison avec la base libre correspondante et son chlorhydrate par l'analyse du comportement de rotation chez la souris après lésion unilatérale du striatum (P. Protais et al. J. Pharmacol. 1976, 7, 251).
Des souris femelles Charles River CD1 pesant de 20 à 24 g ont préalablement fait l'objet d'une lésion unilatérale du striatum par injection stéréotaxique de 6-hydroxydopamine à raison de 8 mcg par animal. Une semaine après cette opération, la 2-(1-pipérazinyl)pyrimidine mono-L(+)-tartrate, la 2-(l-pipérazinyl)pyrimidine chlorhydrate et la base libre ont été administrées par voie orale à des groupes de 6 souris à une dose correspondant à 0,15 mg/kg de base libre. Le nombre de rotations à été évalué, pendant 2 minutes, 1, 3 et 6 heures après l'administration des trois produits. Les rotations ipsilatérales à la lésion ont été comptées positivement, celles contralatérales ont été comptées négativement. La somme algébrique des rotations pour chaque groupe d'animaux traités a été comparée à celle du groupe d'animaux témoins n'ayant reçu que le véhicule (sérum physiologique).
Le Tableau IV ci-dessous montre la variation pour cent, par rapport aux animaux témoins, des rotations.

Experiment [2] concerns toxicité de groupe due à l'amphétamine. Description: antagonism of amphetamine group toxicity (predictive of antipsychotic action). The experiment is classed as in vivo, souris Charles Fiver CD1. The conditions noted are these: Mus musculus, ip; median effective dose against mortality due to amphetamine 30 mg/kg i.p.; compound i.p. 30 min before; mortality over 24 h; confidence limits 10,1 - 26,7; read-out: DE50 (limites de confiance). The source says:
L'activité antipsychotique d'un composé représentatif, le monomaléate de 2-(1-pipérazinyl)pyrimidine, a été déterminée dans le test de l'antagonisme de la toxicité de groupe due à l'amphétamine (J.H. Burn et al., Arch. Int. Pharmacodyn. Ther. 1958, 113, 290).
Le monomaléate de 2-(1-pipérazinyl)pyrimidine a Été administré à des doses croissantes par voie intrapéritonéale à des lots de 10 souris Charles Fiver CD1 pesant 20-22 g et groupées dans des cages de 22 cm de long, 12 cm de large et 12 cm de haute. Trente minutes après l'administration, on a injecté par voie intrapéritonéale de l'amphétamine à la dose de 30 mg/kg. La mortalité des animaux a été évaluée durant les 24 h qui ont suivi l'injection d'amphétamine et comparée, dans chaque groupe, à celle du groupe d'animaux témoins n'ayant reçu que le véhicule (sérum ghysiologigue).
Le tableau ci-dessous montre la dose efficace médiane (DE5G) d'antagonisme de la mortalité due à l'amphétamine.

The subject of experiment [3] is catalepsie provoquée par la prochlorpérazine. Description: antagonism of the onset of prochlorperazine-induced catalepsy (cork test, predictive of antidepressant activity). Particulars: 1 h before prochlorperazine 10 mg/kg s.c., read 5 h later. Type of experiment: in vivo, rats mâles Wistar. The source says: L'activité antidépressive des composés de l'invention a été évaluée dans le test de l'antagonisme vis-à-vis de l'installation de la catalepsie provoquée par la prochlorpérazine (K. Eizière et al., Arzneimittel Forschung, 1982, 32 (II), 824).
Un composé représentatif de l'invention, à savoir le monomaléate de 2-(1-pipérazinyl)pyrimidine, a été administré par voie intrapéritonéale à des groupes de 10 rats mâles Wistar pesant 220-240 g; des animaux de contrôle ont été en même temps traités par du sérum physiologique. Une heure après, les animaux ont reçu, par voie sous-cutanée, de la prochlcrpérazine à une dose de 10 mg/kg. Cinq heures après cette administration, le nombre d'animaux cataleptiques a été estimé par le test du bouchon. Ce test consiste à positionner les animaux de telle sorte qu'ils puissent maintenir pendant au moins 20 seconds leurs pattes en appui sur une colonne formée de trois bouchons de liège superposés (hauteur totale 11 cm). Les performances réalisées pour chaque groupe d'animaux ont été comparées à celles du groupe d'animaux témoins n'ayant reçu que le véhicule et la prcchlorpérazine.
Le tableau ci-dessous montre le pourcentage d'antagonisme de l'installation de la catalepsie provoquée par la prochlorpérazine.

The conditions of experiment [4]: free base, tested within a series of compounds; literature; cited from earlier work.

Turning to `c1cnc(N2CCNCC2)nc1` [2-(1-pipérazinyl)pyrimidine monc-L(+)-tartrate] [mono-L(+)-tartratede 2-(1-pipérazinyl)pyrimidine], in experiment [1] (6th hour), the “variation négative (variation pour cent des rotations par rapport aux animaux témoins)” value was over 100%. Also, the “activité dans le temps (rotations)” value in experiment [1] is on record as “son activité augmente significativement dans le temps”.
With `c1cnc(N2CCNCC2)nc1` [2-(1-pipérazinyl)pyrimidine monomaléate, monomaléatede 2-(l-pipérazinyl)pyrimidine], in experiment [2], the ED50 was 16.5 mg/kg. The “% d'antagonisme” value is given as 20% in experiment [3] (dose 0,1 mg/kg i.p.) and 80% in experiment [3] (dose 1 mg/kg i.p.).
On to `c1cnc(N2CCNCC2)nc1` [base libre, 2-(1-pipérazinyl)pyrimidine], for which, in experiment [1], the “activité dans le temps (rotations)” value is recorded as “tendence à la diminution de l'activité dans le temps” and the “somme algébrique des rotations ipsilatérales et contralatérales à la lésion” value is “réduit d'une façon significative”. Moreover, the “activité analgésique ou antifilariale” value in experiment [4] is on record as “aucun n'a montré d'activité analgésique ou antifilariale”.
Regarding `c1cnc(N2CCNCC2)nc1` [chlorhydrate, 2-(l-pipérazinyl)pyrimidine chlorhydrate], in experiment [1], the “activité dans le temps (rotations)” value is recorded as “inactif aussi dans le temps” and the “somme algébrique des rotations ipsilatérales et contralatérales à la lésion” value is “n'a pas d'effet significatif”.
